Test [1] addresses 3',5'-cyclic-AMP phosphodiesterase 4B (Homo sapiens) (UniProt Q07343). Kind of test: Inhibition of recombinant His-tagged PDE4B expressed in Sf9 cells at 30 uM preincubated for 15 mins before cAMP addition measured after 1 hr by luminescence assay.
Test [2] has the same target. Kind of test: Inhibition of recombinant His-tagged PDE4B expressed in Sf9 cells preincubated for 15 mins before cAMP addition measured after 1 hr by luminescence assay.

Chain of 3',5'-cyclic-AMP phosphodiesterase 4B (Homo sapiens) (Q07343 whole entry): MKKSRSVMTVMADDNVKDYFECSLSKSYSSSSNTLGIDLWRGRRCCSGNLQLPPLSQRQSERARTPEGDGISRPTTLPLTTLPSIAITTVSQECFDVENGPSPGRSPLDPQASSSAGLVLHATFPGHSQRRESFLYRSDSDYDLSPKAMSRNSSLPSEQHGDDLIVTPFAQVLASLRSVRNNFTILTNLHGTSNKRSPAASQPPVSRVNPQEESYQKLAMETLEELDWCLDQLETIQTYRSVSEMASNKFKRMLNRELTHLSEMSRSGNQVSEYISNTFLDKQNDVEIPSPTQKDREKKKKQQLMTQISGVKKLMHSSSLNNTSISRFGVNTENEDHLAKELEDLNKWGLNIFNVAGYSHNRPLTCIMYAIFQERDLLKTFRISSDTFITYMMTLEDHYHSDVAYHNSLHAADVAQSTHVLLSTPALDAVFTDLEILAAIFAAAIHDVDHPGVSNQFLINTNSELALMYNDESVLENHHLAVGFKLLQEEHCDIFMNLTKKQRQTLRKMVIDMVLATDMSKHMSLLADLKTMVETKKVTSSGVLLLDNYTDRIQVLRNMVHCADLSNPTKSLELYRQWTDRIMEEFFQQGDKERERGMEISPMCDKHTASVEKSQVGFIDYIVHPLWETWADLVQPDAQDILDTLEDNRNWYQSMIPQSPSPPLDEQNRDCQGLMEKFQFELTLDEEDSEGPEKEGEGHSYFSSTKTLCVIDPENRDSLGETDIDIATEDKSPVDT

The term inhibition denotes how much of the control response was suppressed. On to `CCOC(=O)/C=C/c1ccc(-n2c(-c3ccccc3)cc(C(=O)OCC)c2C(=O)c2ccccc2)cc1`, for which the inhibition in test [1] was 74.7%; in test [2] it was “Dose-dependent effect”. `CCOC(=O)c1cc(-c2ccccc2)n(-c2ccc(/C=C/C(=O)OC(C)(C)C)cc2)c1C(=O)c1ccccc1`: in test [1], the inhibition stood at 36.1%. `CCOC(=O)c1cc(-c2ccccc2)n(-c2ccc(-c3ccc(OC)cc3)cc2)c1C(=O)c1ccccc1`: the inhibition in test [1] amounted to 24.8%. As to `CCOC(=O)c1cc(-c2ccccc2)n(-c2ccc(/C(C)=C/C(=O)OC)cc2)c1C(=O)c1ccccc1`, the inhibition is 76.7% in test [1] and “Dose-dependent effect” in test [2]. As for `CCOC(=O)c1cc(-c2ccccc2)n(-c2ccc(/C=C/C(=O)OC)cc2)c1C(=O)c1ccccc1`, the inhibition in test [1] came to 45.2%. For `CCCCCCC#Cc1ccc(-n2c(-c3ccccc3)cc(C(=O)OCC)c2C(=O)c2ccccc2)cc1`, the inhibition in test [1] amounted to 22.1%.

Source of the values: ChEMBL document CHEMBL2062513, “Pd-mediated functionalization of polysubstituted pyrroles: their evaluation as potential inhibitors of PDE4” (Bioorg Med Chem Lett, 2012).
